Our source for the AC50 values is PubChem BioAssay AID463229 (Broad Institute, 2010).

Molecules are shown by their SMILES. Where “and” joins values, the source holds several entries; their conditions need not be identical. Equal values may be shown once. Calls of active or inactive are those of the source.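 The calls were made as follows: active = compounds raising the signal whose fitted half-maximal concentration is at or below their top tested dose (cut at about 25 µM in these data); inconclusive = flat fit at 30 to 70% activity, or a poor fit; inactive = the rest.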

This assay concerns INS-1E rat beta cells, no cytokines, CellTiter-Glo ATP, 48 h. Description: ATP level change in INS-1E without cytokines, dose response, counter-screen for beta-cell apoptosis protection project, INS-1E rat cells, ATP luminescence, cherry pick (AID 463229).
`COc1ccc(-c2cn(-c3ccc(OC)cc3)c3[n+]2-c2ccccc2CC3)cc1`: the AC50 was 0.806 µM.

As for `COc1cc(CC(=O)Nc2nc(-c3ccc(F)c(F)c3)cs2)cc(OC)c1OC`, the AC50 is 7.17 µM. Then `CCCCCc1ccc(OCCCC[n+]2cccc(C)c2)c(CCCCC)c1`, with 2.1 µM; and `O=C(Oc1c(CN2CCOCC2)cc(Cl)c2cccnc12)c1ccc(F)cc1`, with 14 µM. Then `O=C(CCCCCCCCCCC(=O)NCc1cccnc1)NCc1cccnc1`, with less than 0.195 µM. Then `N#CC1=C(N)N2C(=C(C#N)C1c1ccc(Br)cc1)Nc1ccccc12` (stereo unspecified), with 1.87 µM. With `Cc1ccccc1Oc1cc(NC(=O)CCCn2nc(C)c([N+](=O)[O-])c2C)cc([N+](=O)[O-])c1`, the AC50 is 6.44 µM. The value for `CCN(CC)c1ccc(/C=N/NC(=O)c2cccc(S(=O)(=O)N3CCOCC3)c2)c(O)c1` was 2.12 µM; that for `O=C(CSc1nnc(Cn2nnc3ccccc32)o1)N(Cc1ccc(Cl)cc1)c1ccccc1` was 6.17 µM. The value for `CCCCCc1cc(=O)oc2c(C(CCN3CCCC(C)C3)c3ccc(OC)cc3)c(OC)cc(OC)c12` (stereo unspecified) was 14.2 µM; that for `CCc1c(C)nc2ncnn2c1NCCc1ccc(OC)cc1` was 6.85 µM; that for `C=C1C(O)[C@@H]2O[C@]3(CC[C@H](/C=C/C(C)[C@@H]4CC(C)=CC5(O[C@H](C[C@@](C)(O)CO)CCC5O)O4)O3)CC[C@H]2O[C@@H]1C(O)CC(C)[C@H]1OC2(CCCCO2)CCC1C` (stereo partly specified) was 10.7 µM.

`Cc1nc(N/N=C/c2ccccn2)sc1C`: the AC50 was 9.42 µM.

Regarding `CC1CCC(C(C)C)C(OC(=O)Cn2c(-c3ccccc3)[n+](C)c3ccccc32)C1` (stereo unspecified), the AC50 was 2.76 µM and 3.37 µM. As to `C/C(=N\NC(=O)c1cc(C2CC2)nc2ccccc12)c1ccc(O)cc1O`, the AC50 is 5.61 µM. The value for `Cc1ccc2c(c1)[nH]c1c(N3CCN(Cc4ccccc4)CC3)ncnc12` was 8.07 µM. The value for `C/C(=N\Nc1ccc2nncn2n1)c1ccccn1` was 2.72 µM; that for `COc1cc(/C=N/NC(=O)c2cccnc2)ccc1OC(=O)c1cc(OC)c(OC)c(OC)c1` was 2.51 µM. Then `CCCCC(=O)N1C/C=C\C(c2ccc(OC)cc2)N(Cc2ccc(F)cc2)C(=O)[C@H]1Cc1ccccc1` (stereo partly specified), with 7.74 µM. On to `COc1cc(NC(=O)c2cc3ccccc3cc2O)c(OC)cc1Cl`, for which the AC50 is 4.68 µM. Then `COC(=O)c1ccccc1NC(=O)c1nc(S(=O)(=O)Cc2ccccc2)ncc1Cl`, with 7.98 µM. In the case of `CN1/C(=C\C(=O)C[n+]2cccc(Br)c2)C(C)(C)c2ccccc21`, the half-maximal activity concentration (AC50) was 5.88 µM. With `Oc1ccc2ccccc2c1N=Nc1ccccn1`, the AC50 is 4.14 µM.

In the case of `CCOc1ccc2nc(NC(=O)c3ccccn3)sc2c1`, the AC50 is 6.67 µM. With `Cc1ccc(C(=O)Nc2cccc3[nH]c(C(F)(F)F)nc23)cc1`, the AC50 is 13.3 µM. As for `Cc1cc(N2CCN(C)CC2)ccc1NC(=O)c1c2c(nc3ccccc13)CCN(Cc1ccccc1)C2`, the AC50 is 8 µM.

In the case of `COC(=O)C1CN(C#N)N(c2ccc(Cl)cc2)C12c1ccccc1-c1ccccc12` (stereo unspecified), the AC50 was 4.26 µM. The value for `O=[N+]([O-])c1ccc(S(=O)(=O)c2ccccc2)nc1` was 10.6 µM; that for `c1ccc(CCNc2nc(-c3ccccn3)nc3ccccc23)cc1` was 4.92 µM. Regarding `FC(F)(F)c1nnc(-c2ccccc2)nc1Sc1ccc(Cl)cc1`, the AC50 is 12.6 µM. The value for `COC(=O)C[C@]1(C(=O)OC)CN(C#N)N(c2ccc(Cl)cc2)C12c1ccccc1-c1ccccc12` was 4.13 µM; that for `Cc1ccccc1N1CCN(Cc2c[nH]c3ccccc23)CC1` was 7.37 µM; that for `NC(N)=NC(N)=Nc1ccc(SC(F)(F)F)cc1` was 2.76 µM. Turning to `Cc1cc(-n2c(SCC(=O)Nc3ccc(F)c(F)c3)nc3n[nH]c(C)c3c2=N)ccc1Cl`, the AC50 was 5.84 µM. Regarding `O=C(Oc1c(CN2CCOCC2)cc(Cl)c2cccnc12)c1cccs1`, the AC50 is 16 µM. `Cc1cc(C)c2c(ccc3cccc[n+]32)c1`: the AC50 was 6.45 µM. The value for `CC1(C)CC(N2CCN(c3ccccc3)CC2)=CC(=[N+]2CCCC2)C1` was 1.79 µM; that for `O=[N+]([O-])c1cc(C(F)(F)F)ccc1NCCCCNS(=O)(=O)c1ccc(Cl)cc1` was 6.94 µM.

For `CCCCCCCCNC(C)C(O)c1ccc(SC(C)C)cc1` (stereo unspecified), the AC50 is 10.5 µM. The value for `COc1ccc(CCNc2ncnc3c2oc2ccccc23)cc1OC` was 3.41 µM. Then `CCC1CCCCN1C(=O)c1cc(COc2ccc3ncccc3c2)on1` (stereo unspecified), with 2.74 µM. With `CCCCCCCC[n+]1c(C)n(-c2ccccc2)c2ccc(NC(C)=O)cc21`, the AC50 is 3.76 µM. Then `Cc1ccc(NC(=O)c2c(C(F)(F)F)nn(C)c2SCc2cccc(C(F)(F)F)c2)cc1C`, with 11.8 µM; and `Cc1ccc(N=Cc2c(C)[nH]n(-c3nc4ccccc4[nH]3)c2=O)cc1`, with 1.85 µM. Then `CC(Oc1ccc(Cl)cc1Cl)c1nc(-c2ccc(NC(=O)c3cccnc3)cc2)no1` (stereo unspecified), with 0.906 µM; and `Cn1nccc1C(=O)NC1CCCc2c1cnn2-c1ccc(C(C)(C)C)cc1` (stereo unspecified), with 2.11 µM; and `COc1ccc(OC)c2c1C(=O)C(Cl)=C(Cl)C2=O`, with 8.18 µM. The value for `S=C(Nc1ccc(Nc2ccccc2)cc1)Nc1ccccn1` was 11.5 µM; that for `O=S(=O)(c1ccc(Cl)cc1)N1CCN(Cc2ccc(O)c3ncccc23)CC1` was 7.13 µM. For the compound `CCOC(=O)c1ccc(NC(=O)Cn2cnc3cc(C)c(C)cc32)cc1`, the AC50 was 5.23 µM. The value for `COc1ccc(-[n+]2c(C)cc(/C=C3\Sc4ccccc4N3C)cc2C)cc1` was less than 0.195 µM; that for `COC(=O)c1ccccc1NC1=C/C(=N\S(=O)(=O)c2ccc(C(=O)O)cc2)c2ccccc2C1=O` was 9.17 µM.

For the compound `Cc1ccc(S(=O)(=O)Nc2cc(Cl)c(O)c3ncccc23)cc1`, the concentration at half-maximal activity (AC50) was 4.38 µM.

For the compound `COc1cccc(/C=N/Nc2ccc([N+](=O)[O-])cn2)c1O`, the AC50 is 7.78 µM. Then `COc1cc2sc(-c3ccccc3OC)c(-c3ccc(OCCN4CCCCC4)cc3)c2cc1OC`, with 7.57 µM. Then `Cn1nnnc1N=N/C(=N/Nc1ccccc1)c1ccccc1`, with 4.36 µM; and `CC(C)(C)c1cc(C(=O)N/N=C/c2ccc([N+](=O)[O-])s2)n[nH]1`, with 6.84 µM. The value for `CCCC(=O)NC(c1ccccc1OC)c1ccc2cccnc2c1O` (stereo unspecified) was 3.28 µM. With `Cc1nc2ccccc2cc1OCc1ccc(F)cc1`, the AC50 is 6.6 µM. Regarding `COc1ccc(C(=O)/C(C#N)=N/Nc2ccc([N+](=O)[O-])cc2)cc1`, the AC50 was 2.15 µM.

Take `Cc1cc([N+](=O)[O-])c2ccccc2[n+]1[O-]`: the AC50 was 0.454 µM. The value for `CCCCCCCCCCn1ccc(=N)cc1` was 0.543 µM; that for `Cc1ccc(O)c(N=Nc2nccs2)c1` was 7.04 µM; that for `CCc1c(C2(O)CCCCC2)[nH]c2cc(C(F)(F)F)ccc12` was 11 µM.

With `O=C(N/N=C/c1cccnc1)c1ccc(NC(=O)C(c2ccccc2)c2ccccc2)cc1`, the half-maximal activity concentration (AC50) is 0.848 µM. The value for `COC(=O)c1cccc(NC(=O)Nc2ccc(Cl)c(Cl)c2)c1` was 10.4 µM; that for `O=C(Nc1ccc(Cl)cc1)Nc1ccc(N2CCCC2)c(S(=O)(=O)Nc2ccccc2Cl)c1` was 7.12 µM; that for `CCn1c(NN=O)nc2ccccc21` was 7.85 µM. Then `COc1ccc(-n2c(-c3ccc(Br)cc3)c[n+]3c2CCc2ccccc2-3)cc1`, with 1.86 µM; and `Cc1ccc(-c2cn(-c3ccc(OC(F)F)cc3)c3[n+]2CCCCC3)cc1`, with 1.45 µM; and `Cc1cccc(/C=N\NC(=O)c2ccc(Cl)cc2)c1O`, with 4.8 µM. The value for `CCCCc1ccc(N/C(N)=N/c2nc(C)cc(C)n2)cc1` was 5.12 µM. With `COc1cc(N/N=C/c2ccccc2O)ncn1`, the AC50 is 16.2 µM. The value for `COc1ccc(NS(=O)(=O)c2ccc(N3CCOCC3)c(N)c2)cc1` was 7.12 µM; that for `Cc1ccc(C)c(NC(=O)c2ccccc2NS(=O)(=O)c2cc([N+](=O)[O-])ccc2C)c1` was 3.94 µM; that for `Cc1ccccc1C(=O)Nc1cccc(C(=O)N/N=C/c2cc(Cl)cc([N+](=O)[O-])c2O)c1` was 13.3 µM.

With `COc1ccc(CC2(CO)CCN(CC3=Cc4cc(Cl)ccc4OC3)CC2)cc1`, the AC50 is 4.18 µM. Then `CC(C)(C)C1CCC2(CC1)C(C#N)=C(SCC(=O)NC1CCCCC1)NC(=O)C2C#N` (stereo unspecified), with 15.9 µM; and `CCCCCc1nc2c(c(=O)c3ccccc3n2C)c(=O)n1C1CCCCCC1`, with 6.84 µM.

Take `CCN1CCN(C(c2ccc(C(F)(F)F)cc2)c2ccc3cccnc3c2O)CC1` (stereo unspecified): the AC50 was 4.72 µM. As for `Cc1[nH]c2ccccc2c1CN1CCN(c2ccccn2)CC1`, the AC50 was 5.1 µM. In the case of `CC(C)(C)c1cc(C(=O)N/N=C/c2ccccc2O)n(-c2ccccc2)n1`, the AC50 is 10.1 µM. The value for `CCc1ccc(S(=O)(=O)/N=C2\C=C(Nc3ccc(O)cc3)C(=O)c3ccccc32)cc1` was 2.21 µM; that for `O=C(Nc1nc(-c2ccccc2)cs1)c1ccccc1NS(=O)(=O)c1ccc(F)cc1` was 4.56 µM; that for `O=C(COc1ccc(Br)cc1)N1CCN(Cc2c[nH]c3ccccc23)CC1` was 3 µM. Then `COc1ccccc1CNCC(O)Cn1c2ccccc2c2ccccc21` (stereo unspecified), with 12.9 µM; and `CCCCCCOc1ccc(CN2CCN(C)CC2)cc1`, with 11 µM; and `Cc1ccc(NC(=O)CCC(=O)N/N=C/c2ccc([N+](=O)[O-])o2)cc1C`, with 19.8 µM. Then `Cc1c(C(=O)N(Cc2ccccc2)C(C)C)oc2ccc(S(=O)(=O)N3CCOCC3)cc12`, with > 26 µM (inactive). Regarding `Cn1nc(-c2ccccn2)nc2c(=O)n(C)c(=O)nc1-2`, the AC50 was 3.1 µM. In the case of `CC(C)CC(=O)NC(c1cccs1)c1ccc2cccnc2c1O` (stereo unspecified), the AC50 is 2.33 µM. Then `CC1=[N+](C)c2ccc3ccccc3c2C1(C)C`, with 14.6 µM; and `CCCC(=O)NC(NC(=S)Nc1ccc(N=Nc2ccccc2)cc1)C(Cl)(Cl)Cl` (stereo unspecified), with 7.51 µM; and `CCOc1ccc(-n2c(-c3ccc(OC)cc3)c[n+]3c2CCCCC3)cc1`, with 0.289 µM. Consider `O=C1N/C(=N\N=C\c2cccnc2)SC1Cc1ccc(SC(F)F)cc1` (stereo unspecified), for which the concentration at half-maximal activity (AC50) is 9.68 µM. In the case of `COc1ccc(Cc2nnc(N/N=C/c3ccc(O)cc3)[nH]c2=O)cc1OC`, the AC50 is 4.32 µM.
